Measurements reported in patent publication US4226856A, “Preparation and use of bouvardin and deoxybouvardin” (University Patents, Inc., priority 1978, dated 1980).

Assays:
[1] = test system: Lymphocytic Leukemia P388; assay: "PS" test, Lymphocytic Leukemia P388 Protocol 1.200; format: in vivo; settings: mice; for RANGE OF % T/C: "PS" test
Protocol: The in vivo "PS" tests were carried out on mice according to "Lymphocytic Leukemia P388--Protocol 1.200", published in Cancer Chemotherapy Reports, Part 3, Vol. 3, No. 2, page 9, (September 1972) with results reported in terms of percent survivals of test versus control animals (%T/C).
(§1) As one example, the "PS" and "Bl" tests noted above involved subcutaneous administration of the test compounds in simple water solution forms. It is expected that water solutions of bouvardin and deoxybouvardin would ordinarily be stabilized by addition of antioxidant substances.

Melanotic Melanoma B 16 = assay: "Bl" test, Melanotic Melanoma B 16 Protocol 1.300; format: in vivo; settings: mice, subcutaneous, water solution
Protocol: The in vivo "Bl" were carried out on mice according to "Melanotic Melanoma B 16--Protocol 1.300" (id., p. 11) with reporting and evaluation procedures identical to those of the "PS" test.
as §1

[2] = test system: cells of human adenocarcinoma of the nasopharynx (KB); assay: "KB" test, Cell Culture Screen KB Protocol 1.600; format: cell-based; settings: 3 days after drug addition, average
Protocol: The in vitro "KB" tests were carried out according to "Cell Culture Screen KB--Protocol 1.600" (id., p. 17) using cells of human adenocarcinoma of the nasopharynx. Test results are expressed as the dose that inhibits cell growth to 50% of control growth by 3 days after drug addition.

Solubility in water = format: physicochemical
Source text: as §1

SMILES: COc1ccc(C[C@H]2C(=O)N[C@@H](C)C(=O)N(C)[C@@H]3C(=O)N(C)[C@@H](Cc4ccc(O)c(c4)Oc4ccc(cc4)[C@@H]3O)C(=O)N[C@H](C)C(=O)N[C@@H](C)C(=O)N2C)cc1 [bouvardin]
- RANGE OF % T/C ([1]; DOSE 0.04): 134 % T/C
- RANGE OF % T/C ([1]; DOSE 0.07): 139 % T/C
- RANGE OF % T/C ([1]; DOSE 0.11): 150 to 164 % T/C
- RANGE OF % T/C ([1]; DOSE 0.16): 158 % T/C
- RANGE OF % T/C ([1]; DOSE 0.25): 161 to 188 % T/C
- RANGE OF % T/C ([1]; DOSE 0.50): 135 to 186 % T/C
- RANGE OF % T/C ([1]; DOSE 1.00): 148 to 217 % T/C
- RANGE OF % T/C ([1]; DOSE 2.00): 167 to 205 % T/C
- "PS" test activity, % T/C (survival of test versus control animals) ([1]; dose levels 0.02 to 2.0 mg/kg, subcutaneous, water solution): 135 to 217 % T/C
- "Bl" test activity, % T/C (Melanotic Melanoma B 16; doses 0.12 to 2.0 mg/kg): 134-152 % T/C
- "KB" test ED 50 (dose that inhibits cell growth to 50% of control growth) [2]: about 4.3×10^-7 μg/L
- Solubility in water (Solubility in water): partially soluble in water

SMILES: COc1ccc(C[C@H]2C(=O)N[C@@H](C)C(=O)N(C)[C@H]3Cc4ccc(cc4)Oc4cc(ccc4O)C[C@@H](C(=O)N[C@H](C)C(=O)N[C@@H](C)C(=O)N2C)N(C)C3=O)cc1 [deoxybouvardin]
- "PS" test activity, % T/C ([1]; 0.04 to 2.0 mg/kg doses, subcutaneous, water solution): 142-216 % T/C
- "Bl" test activity, % T/C (Melanotic Melanoma B 16; 0.25 to 8.0 mg/kg doses): 133-175 % T/C
- "KB" test ED 50 (dose that inhibits cell growth to 50% of control growth) [2]: 1.9e-08 ng/mL
- Solubility in water (Solubility in water): partially soluble in water
